Like-named read-outs stand apart in the source and are kept apart here. Square brackets hold non-standard residues; d marks the D form. Ends that are not written are not given here. K(FITC) = lysine labelled with FITC
Experiments:
[1] = system: NIH 3T3 fibroblasts; assay: Fluorescence microscopy of cellular localization and distribution of the peptide; type: cell-based, mouse; conditions: for intracellular fluorescence distribution (vesicular / diffused cytosolic): K(FITC)-labelled peptide, 2.5 μM, live cells without fixation
Description: (§1) The same cells were subjected to microscopic studies without fixation using a Zeiss Axiovert 200 M (Germany) microscope with a LD Plan NeoFluor 40× objective. The imaging conditions were kept constant for the observation of different samples. Cellular localization and distribution of the peptide was observed by irradiating with blue light (470/40 nm) and observing at 525/50 nm. The bright punctate and encapsulated appearing FITC fluorescence was categorized as vesicular uptake while diffused fluorescence appeared to be distributed in the entire cell with similar intensity. […] Also phase contrast images with DIC of the same area were made to observe if the cells maintain their normal morphology in the presence of peptides.

[2] = system: cells; conditions: cited from earlier work
[3] = system: NIH 3T3 fibroblasts; assay: Uptake assay: cell-related FITC fluorescence corrected for cell number; type: cell-based, mouse; conditions: for cellular uptake / internalization efficiency: K(FITC)-labelled peptide
Procedure: NIH 3T3 mouse fibroblast cells were cultured as a monolayer at 37° C. with 10% CO2 in Dulbecco's Modified Eagle's Medium (DMEM) supplemented with 10% fetal bovine serum, 4 mM L-glutamine, 100 μg/mL streptomycin and 100 U/mL penicillin (all purchased from Biochrom AG, Germany). Cells were passaged by trypsinization with trypsin/EDTA 0.05/0.02% (w/v) in phosphate-buffered saline (PBS; Biochrom AG, Germany) every second to third day.
(§2) Internalization experiments on cells were performed in 96 well microplates by inoculation of NIH 3T3 fibroblasts (1×10^4 cells/well). After 24 h, cells were incubated with 2.5 μM of different peptide solutions in DMEM for additional 18 h at 37° C. with 10% CO2. Before washing, cells were incubated with Bisbenzimid 33342 (Hoechst 33342), a nuclear stain, in order to estimate the cell number. Cells were washed with Hanks' buffered saline (Biochrom AG, Germany) and extracellular fluorescence was quenched by incubating with cold trypan blue 0.05% (w/v) in phosphate-buffered saline (Biochrom AG, Germany) for 3 min followed by repeated washes with Hanks' buffered saline. Cell-related FITC fluorescence (Ex 485 nm/Em 530 nm) and cell number (Ex 346 nm/Em 460 nm) was evaluated in a multiplate reader. Experiments were run at least three times for each peptide with six replicates. Statistical analysis was performed by Student's t-test or ANOVA with Dunnett's post test. P values <0.05 were considered significant. The results are depicted in FIGS. 1 to 3.

[4] = system: different cell types and mouse blastocysts; conditions: cited from earlier work
[5] = system: Primary murine bone marrow cells; assay: Internalization in additional cell lines; type: cell-based, mouse
Procedure: (§3) C6 rat glioma N18 mouse neuroblastoma (differentiated, undifferentiated) CCL-11 mouse fibrosarcoma Shin3 human ovarian carcinoma PANC1 human pancreatic carcinoma Primary murine bone marrow cells
Bone marrow cells were extracted from hind legs of sacrificed mice and were kept in supplemented IMDM medium.
as §2, with “3. […]” for “3.”

[6] = Peptide NMR in water, solution state; type: physicochemical
Procedure: Sample solutions were prepared at pH 4-4.5 and pH 6.5-7 in water. At pH 4.5 standard set of 2D homonuclear experiments (2D-ipCOSY, 2D-TOCSY, two 2D-NOESY spectra at different mixing times (100 and 200 ms)) and heteronuclear experiments (^13C-HSQC and ^15N-HSQC) were performed. The sample yielded well resolved spectra consistent with a monomeric peptide. Using these spectra it was possible to complete a full assignment of all non-exchangeable proton resonances, plus the carbon and nitrogen resonances.
Whereas at pH 6.5, broadening of lines, probably due to the formation of high molecular weight aggregates, makes it difficult to assign individual resonances. Thus, the presence or absence of disulfide bridges in this sample could not be deduced.
NMR experiments were carried out at 600 MHz on a Bruker Avance III spectrometer.

[7] = system: differentiated N18 neuroblastoma cells; assay: Internalization in additional cell lines; type: cell-based, mouse; conditions: differentiated N18, serum reduced from 10% to 1.25%
Procedure: as §3
(§4) Cells were cultivated using their respective optimized growth medium and passaged as described. Differentiation was induced in N18 cells by stepwise reduction of serum in the growth medium from 10% to 1.25%.
as §2, with “P values <0.05 were considered significant. The results are depicted in FIGS. 1 to 3.” left out

[8] = system: N18 mouse neuroblastoma (undifferentiated); assay: Internalization in additional cell lines; type: cell-based
Procedure: as §3, §4, §2, §1

[9] = system: CCL-11 mouse fibrosarcoma; assay: Internalization in additional cell lines; type: cell-based
Procedure: as §3, §4, §2, §1

[10] = system: C6 rat glioma; assay: Internalization in additional cell lines; type: cell-based
Procedure: as §3, §4, §2, §1

[11] = system: Shin3 human ovarian carcinoma; assay: Internalization in additional cell lines; type: cell-based
Procedure: as §3, §4, §2, §1

[12] = system: PANC1 human pancreatic carcinoma; assay: Internalization in additional cell lines; type: cell-based
Procedure: as §3, §4, §2, §1

K (FITC)-KMDCRWRWKCCKK ({K(FITC)}-KMDCRWRWKCCKK; cysteine pairing not given here) [peptide 1, reference compound]
intracellular fluorescence distribution (vesicular / diffused cytosolic) [1]: cytoplasmic diffusion
internalization into cells [2]: able to internalize into cells
cellular uptake / internalization efficiency ([3]; 2.5 μM, 18 h, 37° C.): efficient CPP

Crotamine
intracellular localization ([4]; applied before cell division, after the telophase): mainly localized in the cytoplasm
intracellular localization [4]: localize preferably in the nucleus
non-toxic concentration [4]: up to 1 μM
cell penetration ([4]; in vitro): penetrating into different cell types and mouse blastocysts

K (FITC)-CRWRWKCCKK ({K(FITC)}-CRWRWKCCKK; cysteine pairing not given here) [peptide 23]
uptake behaviour and fluorescence distribution [5]: comparable uptake behaviour with vesicular as well as diffused cytosolic fluorescence distribution
solution state of the peptide ([6]; pH 4.5 in water): unstructured and in a reduced state
solution state of the peptide ([6]; pH 6.5 in water): aggregation
intracellular fluorescence distribution (vesicular / diffused cytosolic) [1]: endosomal as well as cytoplasmic fluorescence distribution
cytosolic distribution at low concentration ([1]; concentration as low as 2.5 μM): retaining the cytosolic distribution
delivery efficiency compared with penetratin ([3]; 2.5 μM): better taken up by cells
cellular uptake / internalization efficiency ([3]; 2.5 μM, 18 h, 37° C.): competently taken up by cells
uptake and cytosolic diffused fluorescence on addition of Dithiothreitol (DTT) ([3]; excess DTT in the incubation medium): reduced the uptake as well as the cytosolic diffused fluorescence
concentration at which efficient cellular uptake and cytosolic location along with vesicular distribution is shown ([3]; subtoxic concentrations): < 2.5 µM
uptake [7]: strongly reduced
uptake behaviour and fluorescence distribution [8]: comparable uptake behaviour with vesicular as well as diffused cytosolic fluorescence distribution
uptake behaviour and fluorescence distribution [9]: comparable uptake behaviour with vesicular as well as diffused cytosolic fluorescence distribution
uptake behaviour and fluorescence distribution [10]: comparable uptake behaviour with vesicular as well as diffused cytosolic fluorescence distribution
uptake behaviour and fluorescence distribution [11]: comparable uptake behaviour with vesicular as well as diffused cytosolic fluorescence distribution
uptake behaviour and fluorescence distribution [12]: comparable uptake behaviour with vesicular as well as diffused cytosolic fluorescence distribution

Ac-tccgtgaacggc-K(FITC)-CRWRWKCCKK-CONH2 (chain 1 Ac-[code t][code c][code c][code g][code t][code g][code a][code a][code c][code g][code g][code c]; chain 2 {K(FITC)}-CRWRWKCCKK-NH2; not fully specified (C-terminus); cysteine pairing not given here; also: chain 1 is a PNA strand joined via Lys(FITC) to peptide chain 2) [PNA-CyLoP-1 fusion]
uptake compared to peptide 23 (CyLoP-1) ([3]; 2.5 μM, 18 h, 37° C.): lowest intracellular fluorescence

Source: patent US20110027300A1, “Identification of a novel cysteine-rich cell penetrating peptide” (Max-Planck-Gesellschaft zur Forderung der Wissenschaften …, priority 2008, published 2011)
